The values below come from ChEMBL document CHEMBL3045844, “Synthetic utility of sydnones: synthesis of pyrazolines derivatized with 1,2,4-triazoles as antihyperglymic, antioxidant agents and their DNA cleavage study” (Med Chem Res, 2012).

In experiment [1] the test system is Radical scavenging activity. The experiment is described as follows: Antioxidant activity assessed as DPPH radical scavenging activity at 50 ug after 20 min. It counts as functional. For orientation: The DPPH test is a chemical assay of radical scavenging.
Experiment [2] deals with Radical scavenging activity. Briefly: Antioxidant activity assessed as DPPH radical scavenging activity at 100 ug after 20 min. It counts as functional.
Experiment [3] deals with T1, Pancreatic alpha-amylase (Homo sapiens) (UniProt P04746).
T1 sequence (whole entry): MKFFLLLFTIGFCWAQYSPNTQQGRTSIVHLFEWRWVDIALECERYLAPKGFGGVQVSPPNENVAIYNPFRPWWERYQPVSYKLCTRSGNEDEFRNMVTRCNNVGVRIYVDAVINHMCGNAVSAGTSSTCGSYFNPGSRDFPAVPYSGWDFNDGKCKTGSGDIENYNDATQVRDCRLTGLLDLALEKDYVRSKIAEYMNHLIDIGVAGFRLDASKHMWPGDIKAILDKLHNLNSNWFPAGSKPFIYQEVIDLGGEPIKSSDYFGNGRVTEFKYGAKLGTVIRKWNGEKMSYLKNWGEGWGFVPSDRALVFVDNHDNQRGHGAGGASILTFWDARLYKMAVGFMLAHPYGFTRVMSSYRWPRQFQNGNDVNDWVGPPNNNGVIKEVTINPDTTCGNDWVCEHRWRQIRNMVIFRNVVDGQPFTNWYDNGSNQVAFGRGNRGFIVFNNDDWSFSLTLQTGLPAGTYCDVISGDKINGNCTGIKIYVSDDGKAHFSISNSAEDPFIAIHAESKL
Briefly: Activity of alpha amylase (unknown origin) at 1 mg/ml after 10 min relative to control.

Experiment [4] has as its system Radical scavenging activity. The experiment is described as follows: Antioxidant activity assessed as DPPH radical scavenging activity at 10 ug after 20 min. It counts as functional.
Experiment [5] is described as follows: Induction of DNA cleavage at 100 ug after 2 hr by electrophoresis relative to control.

Activity calls are given as the source filed them. No cut-off for these calls is given here.

On to `COc1ccc(C2CC(c3ccc(-n4nc(C)n(N)c4=O)cc3)=NN2C(C)=O)cc1OC` (stereo not given), for which the Activity in experiment [1] is 1.18%; in experiment [2], 1.67%; in experiment [3], 64%; in experiment [4], 0.48%. Besides, the result in experiment [5] was Active.
For `CC(=O)N1N=C(c2ccc(-n3nc(C)n(N)c3=O)cc2)CC1c1ccc(O)cc1` (stereo not given), the Activity in experiment [1] was 9.03%; in experiment [2], 16.9%; in experiment [3], 76.7%; in experiment [4] it was 3.08%. Further, the result in experiment [5] was Active.
Consider `CC(=O)N1N=C(c2ccc(-n3nc(C)n(N)c3=O)cc2)CC1c1ccccc1` (stereo not given), for which the Activity amounted to 30.2% in experiment [1], 56.1% in experiment [2], 129% in experiment [3] and 24.7% in experiment [4]. The result in experiment [5] was Active.
Regarding `CC(=O)N1N=C(c2ccc(-n3nc(C)n(N)c3=O)cc2)CC1c1ccc(Cl)cc1` (stereo not given), the Activity was 69.9% in experiment [1], 81.5% in experiment [2], 126% in experiment [3] and 21.7% in experiment [4]. The result in experiment [5] was Active.
The corresponding values for `COc1ccc(C2CC(c3ccc(-n4nc(C)n(N)c4=O)cc3)=NN2C(C)=O)cc1` (stereo not given) are 2.28%, 2.4%, 96.5%, 0.6% and “Active”.
For `CC(=O)N1N=C(c2ccc(-n3nc(C)n(N)c3=O)cc2)CC1c1ccccc1Cl` (stereo not given) the same measures were 67.8%, 78.4%, 76.7%, 20% and “Active”.
The corresponding values for `CC(=O)N1N=C(c2ccc(-n3nc(C)n(N)c3=O)cc2)CC1c1ccc(C)cc1` (stereo not given) are 70.1%, 82.5%, 96.5%, 23% and “Active”.
In the case of `CC(=O)N1N=C(c2ccc(-n3nc(C)n(N)c3=O)cc2)CC1c1ccc([N+](=O)[O-])cc1` (stereo not given), the Activity in experiment [1] worked out at 1.09%; in experiment [2], 1.49%; in experiment [3], 102%; in experiment [4] it was 0.4%. Moreover, the outcome in experiment [5] was Active.
For the compound `CC(=O)N1N=C(c2ccc(-n3nc(C)n(N)c3=O)cc2)CC1c1cccc(Cl)c1` (stereo not given), the Activity in experiment [1] turned out to be 63.8%; in experiment [2], 73.8%; in experiment [3], 96.5%; in experiment [4] it was 15.2%. The outcome in experiment [5] was Active.
